The source made the active and inactive calls. Cut-off read from the data, not from the text of the source, for most assays here: actives have a measured EC50 and inactives only a lower limit.
Columns and labels:
[1] = Luminescence Cell-Based Dose Confirmation HTS to Identify Activators of 5'UTR Stem-Loop Driven Alpha-Synuclein mRNA Translation in H4 Neuroglioblastoma Cells. [Related pubchem assays: 1829 (Project Summary), 1814 (Primary HTS)]; assay type: functional
H4 = assay: Luminescence Cell-Based Dose Response HTS to Identify Activators of 5'UTR Stem-Loop Driven Prion Protein mRNA Translation in H4 Neuroglioblastoma Cells. [Related pubchem assays: 1829 (Project Summary), 1814 (Primary HTS)]; assay type: functional; details: Homo sapiens
[2] = Luminescence Cell-Based Dose Response HTS to Identify Activators of Luciferase Translation or Activity in H4 […] Cells. [Related pubchem assays: 1829 (Project Summary), 1814 (Primary HTS)]; assay type: functional
[3] = cytotoxicity toward DRD oncogenic fibroblasts, dose response, cell-based, non-viral oncogenic, luminescence (AID 1934); assay type: functional; details: Homo sapiens
BJ [4] = assay: cells; assay type: functional, cell-based; details: Homo sapiens
BJ [5] = assay: cytotoxicity toward BJ-TERT-LT-ST fibroblasts, dose response, cell-based, RAS-independent, luminescence (AID 1935); assay type: functional; details: Homo sapiens;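 note: BJ fibroblasts immortalized with TERT plus LT and ST oncogenes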
BJ [6] = assay: cytotoxicity toward BJ-TERT fibroblasts, dose response, cell-based, RAS-independent, luminescence (AID 1933); assay type: functional; details: Homo sapiens
Coagulation factor XII = molecular target: T1, Coagulation factor XII (Homo sapiens, UniProt P00748); assay type: functional;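 note: activated factor XIIa alpha cleaving a fluorogenic AMC peptide substrate; inhibitor potency from loss of enzyme activity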
T1 sequence (P00748 whole entry): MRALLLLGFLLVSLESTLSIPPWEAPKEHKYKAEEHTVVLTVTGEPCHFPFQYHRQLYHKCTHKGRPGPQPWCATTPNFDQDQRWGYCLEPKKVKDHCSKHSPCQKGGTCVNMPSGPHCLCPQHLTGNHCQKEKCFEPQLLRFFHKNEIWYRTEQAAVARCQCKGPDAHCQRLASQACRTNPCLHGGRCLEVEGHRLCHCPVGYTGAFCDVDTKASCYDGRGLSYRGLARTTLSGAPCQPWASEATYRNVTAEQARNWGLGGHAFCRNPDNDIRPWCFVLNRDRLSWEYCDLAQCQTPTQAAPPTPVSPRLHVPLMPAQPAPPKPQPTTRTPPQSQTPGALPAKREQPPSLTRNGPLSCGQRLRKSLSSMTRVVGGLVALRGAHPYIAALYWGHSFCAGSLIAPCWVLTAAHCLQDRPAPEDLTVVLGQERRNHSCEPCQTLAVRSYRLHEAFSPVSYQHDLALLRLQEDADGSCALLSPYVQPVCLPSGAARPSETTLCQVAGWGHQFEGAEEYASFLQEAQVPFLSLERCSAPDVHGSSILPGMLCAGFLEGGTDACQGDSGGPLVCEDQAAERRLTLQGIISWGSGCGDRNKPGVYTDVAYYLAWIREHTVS

Protein skinhead-1 = molecular target: T2, Protein skinhead-1 (Caenorhabditis elegans, UniProt P34707); assay type: functional
T2 sequence (P34707 whole entry): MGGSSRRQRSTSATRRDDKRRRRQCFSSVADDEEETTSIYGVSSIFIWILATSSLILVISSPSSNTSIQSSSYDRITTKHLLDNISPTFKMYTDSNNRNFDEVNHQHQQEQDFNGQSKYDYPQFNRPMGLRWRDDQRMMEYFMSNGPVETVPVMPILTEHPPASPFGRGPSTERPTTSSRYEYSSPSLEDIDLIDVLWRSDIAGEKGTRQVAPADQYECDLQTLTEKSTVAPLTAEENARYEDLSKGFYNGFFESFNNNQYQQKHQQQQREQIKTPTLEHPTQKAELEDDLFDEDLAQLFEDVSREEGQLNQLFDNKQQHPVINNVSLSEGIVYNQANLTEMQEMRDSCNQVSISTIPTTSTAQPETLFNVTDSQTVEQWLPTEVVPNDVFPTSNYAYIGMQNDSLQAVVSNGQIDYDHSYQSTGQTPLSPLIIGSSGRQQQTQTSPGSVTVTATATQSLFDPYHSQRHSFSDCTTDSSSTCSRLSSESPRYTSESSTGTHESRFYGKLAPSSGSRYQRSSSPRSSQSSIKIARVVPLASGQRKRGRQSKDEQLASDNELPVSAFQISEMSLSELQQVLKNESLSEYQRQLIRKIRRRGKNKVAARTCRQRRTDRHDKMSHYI

[7] = molecular target: T3, Polyadenylate-binding protein 1 (Homo sapiens, UniProt P11940); assay: PABP1 MLLE–PAM2 interaction inhibitors, dose response, miRNA deadenylation inhibitor project, biochemical, fluorescence polarization, Cy5-PAM2 peptide, secondary (AID 602260); assay type: functional; details: read-out: IC50_Mean
T3 sequence (P11940 whole entry): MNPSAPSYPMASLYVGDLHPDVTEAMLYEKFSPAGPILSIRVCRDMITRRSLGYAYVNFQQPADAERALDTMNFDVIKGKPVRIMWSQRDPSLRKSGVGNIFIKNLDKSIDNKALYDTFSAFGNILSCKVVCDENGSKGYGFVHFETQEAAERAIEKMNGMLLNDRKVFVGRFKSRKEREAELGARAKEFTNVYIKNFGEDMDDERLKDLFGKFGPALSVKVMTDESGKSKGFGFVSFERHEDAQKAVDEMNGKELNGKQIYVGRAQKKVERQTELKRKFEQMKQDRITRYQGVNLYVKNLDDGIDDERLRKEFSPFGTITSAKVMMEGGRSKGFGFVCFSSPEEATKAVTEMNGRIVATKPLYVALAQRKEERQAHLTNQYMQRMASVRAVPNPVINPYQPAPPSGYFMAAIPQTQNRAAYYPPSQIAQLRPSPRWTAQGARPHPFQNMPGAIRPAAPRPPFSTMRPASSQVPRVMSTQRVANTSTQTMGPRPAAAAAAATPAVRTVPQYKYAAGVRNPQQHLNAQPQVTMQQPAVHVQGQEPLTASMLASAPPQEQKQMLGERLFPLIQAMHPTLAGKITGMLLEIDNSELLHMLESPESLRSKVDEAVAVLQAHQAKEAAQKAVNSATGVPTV

[8] = molecular target: T3, Polyadenylate-binding protein 1; assay: PABP1 MLLE–PAM2 binding inhibitor potency, dose response, biochemical, fluorescence polarization, FITC-PAM2 peptide (AID 602259); assay type: functional; details: read-out: IC50_Mean
[9] = Luminescence Cell-Based Dose Confirmation HTS to Identify Inhibitors of Platelet Dense Granule Release. [Related pubchem assays: 1663 (Primary HTS), 1678 (Summary of Project)]; assay type: functional
[10] = molecular target: T4, Calpain-2 catalytic subunit (Sus scrofa, UniProt P43367); assay: pig calpain II inhibitor potency, dose response, biochemical, fluorogenic peptide substrate (AID 1420); assay type: functional
T4 sequence (P43367 whole entry): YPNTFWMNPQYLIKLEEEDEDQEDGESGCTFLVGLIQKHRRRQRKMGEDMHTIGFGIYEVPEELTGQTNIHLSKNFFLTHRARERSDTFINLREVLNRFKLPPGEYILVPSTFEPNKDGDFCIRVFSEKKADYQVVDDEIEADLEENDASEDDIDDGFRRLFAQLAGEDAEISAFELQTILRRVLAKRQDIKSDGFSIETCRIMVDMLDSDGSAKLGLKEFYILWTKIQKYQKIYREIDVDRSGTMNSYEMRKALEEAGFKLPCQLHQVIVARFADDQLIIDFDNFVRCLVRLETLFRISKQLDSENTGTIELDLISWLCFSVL

Streptokinase A = molecular target: T5, Streptokinase A (Streptococcus pyogenes serotype M1, UniProt P10520); assay: S. pyogenes streptokinase expression inhibitors, potency, dose response, plasminogen activation absorbance, OD405 (AID 1914); assay type: functional, Streptococcus pyogenes M1 GAS;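 note: secreted streptokinase activity via plasminogen activation per viability signal from cell pellet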
T5 sequence (P10520 whole entry): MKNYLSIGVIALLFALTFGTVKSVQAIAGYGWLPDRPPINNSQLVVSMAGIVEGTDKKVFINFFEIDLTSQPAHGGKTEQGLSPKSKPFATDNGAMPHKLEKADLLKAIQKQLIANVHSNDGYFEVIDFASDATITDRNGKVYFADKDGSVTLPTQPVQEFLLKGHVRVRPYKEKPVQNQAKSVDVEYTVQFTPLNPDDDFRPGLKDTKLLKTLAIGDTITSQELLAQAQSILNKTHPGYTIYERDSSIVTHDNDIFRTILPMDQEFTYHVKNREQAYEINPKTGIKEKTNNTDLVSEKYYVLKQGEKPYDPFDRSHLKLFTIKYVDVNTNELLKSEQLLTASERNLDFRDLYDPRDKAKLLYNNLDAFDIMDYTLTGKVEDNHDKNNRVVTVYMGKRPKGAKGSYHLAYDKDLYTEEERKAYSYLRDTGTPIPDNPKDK

Streptococcus = assay: Group A Streptococcus viability loss, dose response, counter-screen for streptokinase expression inhibitor project, luminescence, BacTiterGlo (AID 1915); assay type: functional, organism-based;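 note: potency for reduction of bacterial viability or growth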
[11] = tested on: Streptococcus sp. 'group A'; assay: growth inhibition of control SK(-) GAS strain, dose response, counter-screen for streptokinase expression inhibitor project, luminescence, kanamycin, BacTiterGlo, confirmation (AID 1900); assay type: functional, organism-based
[12] = molecular target: Luciferin 4-monooxygenase (Photinus pyralis, UniProt P08659); assay: firefly luciferase enzyme inhibitors, dose response, biochemical, luminescence (AID 1891)
Chain of Luciferin 4-monooxygenase (P08659 whole entry): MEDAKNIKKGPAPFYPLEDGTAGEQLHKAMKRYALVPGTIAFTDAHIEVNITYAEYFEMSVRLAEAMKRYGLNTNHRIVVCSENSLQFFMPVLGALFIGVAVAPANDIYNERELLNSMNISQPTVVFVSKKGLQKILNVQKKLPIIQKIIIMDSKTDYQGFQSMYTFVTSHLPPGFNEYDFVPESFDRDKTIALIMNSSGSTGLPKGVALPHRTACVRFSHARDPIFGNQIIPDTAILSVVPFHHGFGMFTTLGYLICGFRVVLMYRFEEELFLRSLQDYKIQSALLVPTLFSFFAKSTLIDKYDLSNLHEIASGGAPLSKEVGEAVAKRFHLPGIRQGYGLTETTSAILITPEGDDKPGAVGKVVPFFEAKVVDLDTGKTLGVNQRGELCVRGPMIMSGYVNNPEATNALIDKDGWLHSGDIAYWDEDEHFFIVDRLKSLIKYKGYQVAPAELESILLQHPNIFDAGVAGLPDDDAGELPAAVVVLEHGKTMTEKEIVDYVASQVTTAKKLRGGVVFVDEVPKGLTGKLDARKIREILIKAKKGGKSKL

Protein RecA = molecular target: T6, Protein RecA (Mycobacterium tuberculosis, UniProt P9WHJ3); assay: Fluorescence Cell-Free Homogeneous Dose Retest to Identify Inhibitors of RecA-Intein Splicing Activity. [Related pubchem assays (depositor defined):AID2097, AID2223, AID489010, AID492950]; assay type: functional
T6 sequence (P9WHJ3 whole entry): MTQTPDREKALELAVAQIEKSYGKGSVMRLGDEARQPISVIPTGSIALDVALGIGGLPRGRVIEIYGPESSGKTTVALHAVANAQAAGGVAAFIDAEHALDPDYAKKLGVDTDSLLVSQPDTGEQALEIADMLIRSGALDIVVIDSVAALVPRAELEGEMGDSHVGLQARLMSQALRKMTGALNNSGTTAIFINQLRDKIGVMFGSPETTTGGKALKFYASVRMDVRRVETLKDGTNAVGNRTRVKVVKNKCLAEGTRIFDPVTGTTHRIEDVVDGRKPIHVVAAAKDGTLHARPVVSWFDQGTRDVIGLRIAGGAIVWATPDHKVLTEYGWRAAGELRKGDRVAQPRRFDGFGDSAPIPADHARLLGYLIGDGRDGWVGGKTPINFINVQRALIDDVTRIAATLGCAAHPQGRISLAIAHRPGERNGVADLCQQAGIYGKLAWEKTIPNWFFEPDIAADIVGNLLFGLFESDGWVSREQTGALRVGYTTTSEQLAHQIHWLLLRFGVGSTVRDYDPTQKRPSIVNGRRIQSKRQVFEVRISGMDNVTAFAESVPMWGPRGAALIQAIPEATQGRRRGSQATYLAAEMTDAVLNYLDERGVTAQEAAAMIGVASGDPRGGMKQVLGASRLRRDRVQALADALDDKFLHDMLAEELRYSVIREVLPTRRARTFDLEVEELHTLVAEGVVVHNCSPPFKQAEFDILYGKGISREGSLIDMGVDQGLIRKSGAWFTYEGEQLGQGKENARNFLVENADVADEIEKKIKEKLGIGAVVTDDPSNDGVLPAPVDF

[13] = molecular target: T7, Replicative DNA helicase DnaB (Mycobacterium tuberculosis, UniProt P9WMR3); assay: DnaB intein splicing inhibitors, dose response, biochemical, cell-free fluorescence (AID 449749); assay type: functional
T7 sequence (P9WMR3 whole entry): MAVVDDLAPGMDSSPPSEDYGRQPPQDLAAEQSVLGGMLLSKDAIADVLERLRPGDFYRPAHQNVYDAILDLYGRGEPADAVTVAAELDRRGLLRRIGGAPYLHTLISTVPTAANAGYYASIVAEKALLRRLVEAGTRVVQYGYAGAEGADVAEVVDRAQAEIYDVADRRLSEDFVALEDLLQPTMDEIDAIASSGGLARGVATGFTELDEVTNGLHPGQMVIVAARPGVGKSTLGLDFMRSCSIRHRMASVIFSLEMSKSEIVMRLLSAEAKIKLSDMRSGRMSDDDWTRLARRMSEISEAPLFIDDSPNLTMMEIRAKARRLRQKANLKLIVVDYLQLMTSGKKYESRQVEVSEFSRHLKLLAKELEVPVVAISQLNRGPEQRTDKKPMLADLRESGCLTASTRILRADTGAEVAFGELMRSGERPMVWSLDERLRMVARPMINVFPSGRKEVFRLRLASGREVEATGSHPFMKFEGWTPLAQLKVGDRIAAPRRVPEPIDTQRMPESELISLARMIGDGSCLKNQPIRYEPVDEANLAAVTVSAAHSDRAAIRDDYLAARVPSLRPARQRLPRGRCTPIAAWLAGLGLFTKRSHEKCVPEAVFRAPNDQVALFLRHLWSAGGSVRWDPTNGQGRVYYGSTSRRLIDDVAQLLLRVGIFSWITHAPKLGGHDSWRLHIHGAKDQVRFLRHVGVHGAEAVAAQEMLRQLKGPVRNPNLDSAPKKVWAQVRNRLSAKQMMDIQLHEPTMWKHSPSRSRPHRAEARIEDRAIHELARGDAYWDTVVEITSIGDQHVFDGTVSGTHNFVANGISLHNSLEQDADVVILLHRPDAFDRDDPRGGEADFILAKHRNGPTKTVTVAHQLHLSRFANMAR

[14] = C. albicans growth with fluconazole, confirmation, fluorescence, retest (AID 2467); assay type: functional, cell-based
[15] = NIH-3T3 fibroblast cytotoxicity, dose response, cytotoxicity control, cell-based, fluorescence, Alamar Blue, secondary assay (AID 2327); assay type: functional;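 note: NIH-3T3 mouse fibroblasts cultured with fluconazole at 8 µg/mL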

Structure (SMILES)	EC50 [1]	EC50 (H4)	EC50 [2]	IC50 (Coagulation factor XII)	further results
O=C(NC(=O)c1csnn1)Nc1ccccc1Cl	5.61 µM (active)	> 60 µM (not active)	94 µM (active)		
Cc1cccc(N2C(=O)NC(=O)/C(=C\c3c(-c4ccccc4)[nH]c4ccccc34)C2=O)c1	> 120 µM (not active)	> 120 µM (not active)	0.511 µM (active)		EC50 [3]: 3.33 µM (active); EC50 (BJ [4]): 58.6 µM (active); EC50 (BJ [5]): 11.5 µM (inconclusive); EC50 (BJ [6]): 3.69 µM (active)
CCn1c(O)cc(=O)nc1SCC(=O)N1CCCCC1				> 50 µM (inactive)	
COc1ccccc1C(=O)n1nc(-c2cccnc2)nc1N				0.503 µM (active)	
O=C(Cc1ccccc1[N+](=O)[O-])Nc1ccccc1C(=O)N1CCCC1				> 50 µM (inactive)	
O=C(Oc1cncc(Cl)c1)c1ccco1				1.39 µM (active)	IC50 (Protein skinhead-1): > 100 µM (inactive)
COc1cc(OC)cc(C(=O)NCC(=O)Nc2ccc(-c3ccccc3)cc2)c1	> 60 µM (not active)	9.12 µM (active)	55.6 µM (active)		
CCOC(=O)c1nn(-c2ccc3c(c2)OCO3)cc1O	16.6 µM (active)	23.9 µM (active)	15.7 µM (active)		
O=C(CC(SCCO)c1ccc2c(c1)OCO2)c1cccs1 (stereo not given)	3.91 µM (active)	9.36 µM (active)	119 µM (active)		IC50 [7]: > 66 µM (inactive); IC50 [8]: > 66 µM (inactive)
COCCCn1c(=O)/c(=C\c2ccccc2OC(C)C)s/c1=C(/C#N)C(=O)Nc1ccc(C(=O)O)cc1				> 50 µM (inactive)	EC50 [9]: > 112 µM (not active); IC50 [10]: 3.61 µM (not active); EC50 (Streptokinase A): > 150 µM (not active); EC50 (Streptococcus): > 50 µM (not active); EC50 [11]: 1.44 µM (active); EC50 [12]: > 112 µM (not active)
O=c1c(Cl)c(NCCCO)cnn1-c1nc2ccccc2[nH]1	25.2 µM (active)	88 µM (active)			EC50 (Protein RecA): 7.41 µM (active); AC50 [13]: > 380 µM (inactive); EC50 [14]: 3.47 µM (active); EC50 [15]: 9.04 µM (inconclusive)
Cc1ccc(C(CC(=O)NCCCN(C)C)c2ccc(OC(C)C)cc2)cc1 (stereo not given)				> 50 µM (inactive)	

Source: ChEMBL document CHEMBL1201862, “PubChem BioAssay data set” (2004)
